Common to all, as to experiment: NCI-60 cell line screen, 48 h
The subject of assay [1] is TK-10 renal.
The test system of assay [2] is OVCAR-3 ovarian.
Assay [3] has as its system EKVX NSCLC.
Assay [4] concerns SN12C renal.
Assay [5] concerns MALME-3M melanoma.
Assay [6] relates to OVCAR-5 ovarian.
The test system of assay [7] is NCI/ADR-RES ovarian.
For assay [8], the system named is HT29 colon.
In assay [9] the test system is NCI-H23 lung.
For assay [10], the system named is BT-549 breast.
Assay [11] relates to SK-MEL-28 melanoma.
Assay [12] concerns SNB-19 CNS.
Assay [13] deals with T-47D breast.
Assay [14] relates to PC-3 prostate.
Assay [15] deals with OVCAR-4 ovarian.
Assay [16] deals with MDA-MB-435.
For assay [17], the system named is HCC-2998 colon.
Assay [18] deals with SF-295 CNS.
Assay [19] deals with RXF 393 renal.

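Cultured in 96-well plates, cells were exposed to test compound for 48 hours across five concentrations. TGI: concentration producing complete growth inhibition.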

On to `COC(=O)/C=C/N1CC1`, for which the TGI in assay [1], in assay [2], in assay [3], in assay [4], in assay [5] and in assay [6] was more than 10 µM throughout. Also, the TGI in assay [7], in assay [8], in assay [9], in assay [10], in assay [11] and in assay [12] was more than 10 µM each time. Also, the TGI in [13], in [14], in [15], in [16], in assay [17] and in assay [18] was more than 10 µM in each case.

On to `O=c1cc(-c2cccc(Br)c2)[nH]c2cc3c(cc12)OCO3`, for which the TGI in assay [1] is 28.6 µM; in [2], 9.5 µM; in assay [4], more than 55.9 µM; in assay [5], 17.2 µM; in [6] it was more than 100 µM; in [7], 30.7 µM. Besides, the TGI is more than 83.3 µM in [8]; 12.8 µM in assay [9]; 14.4 µM in assay [10]; more than 100 µM in assay [11]; 10.3 µM in assay [12]; 36.5 µM in assay [13]. For the same compound, the TGI was more than 100 µM in assay [14]; more than 100 µM in assay [15]; 3.02 µM in [16]; 63 µM in assay [17]; 6.52 µM in assay [18]; 14.3 µM in assay [19].

As to `O=c1c2cc([N+](=O)[O-])cnc2sn1-c1ccc(Br)cc1`, the TGI was more than 100 µM in assay [1]; more than 100 µM in assay [2]; more than 100 µM in assay [3]; more than 100 µM in [4]; 57 µM in [5]; more than 100 µM in [6]. The TGI in assay [7] was more than 100 µM; in assay [8] it was 79.2 µM; in assay [9], more than 100 µM; in assay [10], more than 100 µM; in assay [11] it was more than 100 µM; in assay [12], more than 100 µM. Besides, the TGI was 48.1 µM in assay [13]; more than 100 µM in assay [14]; 82 µM in assay [15]; more than 100 µM in assay [16]; more than 100 µM in assay [17]; 47.1 µM in [18].

For `CCOC(=O)c1c(CN2CCOCC2)n(Cc2ccccc2)c2c1cc(O)c1nc(C)c(C)nc12`, the TGI in assay [1] was 97.7 µM; in assay [2], more than 100 µM; in [3], more than 100 µM; in [4] it was more than 100 µM; in [5], more than 100 µM; in assay [6], more than 100 µM. Besides, the TGI is more than 100 µM in assay [7]; more than 100 µM in [8]; more than 100 µM in assay [9]; 34 µM in [10]; more than 100 µM in assay [11]; more than 100 µM in assay [12]. For the same compound, the TGI in [13] was more than 100 µM; in [14], 92.4 µM; in assay [15] it was more than 100 µM; in assay [16] it was more than 100 µM; in [17], more than 100 µM; in assay [18] it was more than 100 µM.

On to `NNC(=O)CSc1nnc(CCCCCCCCc2nnc(SCC(=O)NN)o2)o1`, for which the TGI in assay [1], in assay [3], in [4], in assay [5], in assay [6] and in [7] was more than 100 µM each time. Also, the TGI in assay [8], in [9], in [10], in assay [11], in [12] and in assay [13] was more than 100 µM each time. In addition, the TGI in assay [14], in assay [15], in assay [16], in [17], in assay [18] and in [19] was more than 100 µM each time.

On to `S=c1sscc1N1CCSc2ssc(=S)c21`, for which the TGI was 81.8 µM in [1]; 49.8 µM in [3]; more than 100 µM in assay [4]; more than 100 µM in [5]; more than 100 µM in assay [6]; more than 100 µM in assay [7]. The TGI is more than 100 µM in assay [8]; 69.8 µM in assay [9]; more than 100 µM in [10]; more than 100 µM in assay [11]; 63.5 µM in [12]; more than 100 µM in assay [13]. The TGI in assay [14] is more than 100 µM; in [15], 29.8 µM; in [16], more than 100 µM; in assay [17], more than 100 µM; in assay [19], more than 100 µM.

As for `Cc1ccc2nnc(NS(=O)(=O)c3cc(C)c(Cl)cc3S)n2n1`, the TGI in [1], in [2], in assay [3], in [4], in [5] and in [6] was more than 100 µM throughout. Further, the TGI in assay [7], in assay [8], in [10], in assay [11], in [12] and in [13] was more than 100 µM throughout. Also, the TGI in assay [14], in assay [15], in assay [16], in [17] and in assay [19] was more than 100 µM in each case.

As for `NC(N)=N/N=C/c1c(-c2ccc(Cl)cc2)nc2n1CCS2`, the TGI in [1] worked out at 29.4 µM; in assay [2], 22.1 µM; in assay [3] it was 30.4 µM; in [4] it was 29.5 µM; in [5], 30.9 µM; in assay [6], 28.3 µM. Besides, the TGI was 32.6 µM in assay [7]; 21.1 µM in assay [8]; 28 µM in assay [10]; 26.8 µM in assay [11]; 32.6 µM in assay [12]; 34.8 µM in assay [13]. Further, the TGI in assay [14] came to 18.2 µM; in [15], 28.6 µM; in [16], 25.6 µM; in assay [17], 8.39 µM; in assay [18], 11.3 µM; in assay [19], 24.5 µM.
